According to BindingDB's records for patent US20250154134 (Wigen Biomedicine Technology (Shanghai), 2025):

Target: Focal adhesion kinase 1 (Homo sapiens, UniProt Q05397)
Assay: Inhibitory Activity Assay
Protocol: A compound serially diluted with DMSO was mixed with a FAK recombinant protein. After the mixture was left to stand at room temperature for 10 min, a biotin-labeled TK substrate (TK) and ATP were added. […] The inhibition percentage and IC50 of the compound were calculated compared to the DMSO control group.

Chain of Focal adhesion kinase 1 (Q05397 whole entry): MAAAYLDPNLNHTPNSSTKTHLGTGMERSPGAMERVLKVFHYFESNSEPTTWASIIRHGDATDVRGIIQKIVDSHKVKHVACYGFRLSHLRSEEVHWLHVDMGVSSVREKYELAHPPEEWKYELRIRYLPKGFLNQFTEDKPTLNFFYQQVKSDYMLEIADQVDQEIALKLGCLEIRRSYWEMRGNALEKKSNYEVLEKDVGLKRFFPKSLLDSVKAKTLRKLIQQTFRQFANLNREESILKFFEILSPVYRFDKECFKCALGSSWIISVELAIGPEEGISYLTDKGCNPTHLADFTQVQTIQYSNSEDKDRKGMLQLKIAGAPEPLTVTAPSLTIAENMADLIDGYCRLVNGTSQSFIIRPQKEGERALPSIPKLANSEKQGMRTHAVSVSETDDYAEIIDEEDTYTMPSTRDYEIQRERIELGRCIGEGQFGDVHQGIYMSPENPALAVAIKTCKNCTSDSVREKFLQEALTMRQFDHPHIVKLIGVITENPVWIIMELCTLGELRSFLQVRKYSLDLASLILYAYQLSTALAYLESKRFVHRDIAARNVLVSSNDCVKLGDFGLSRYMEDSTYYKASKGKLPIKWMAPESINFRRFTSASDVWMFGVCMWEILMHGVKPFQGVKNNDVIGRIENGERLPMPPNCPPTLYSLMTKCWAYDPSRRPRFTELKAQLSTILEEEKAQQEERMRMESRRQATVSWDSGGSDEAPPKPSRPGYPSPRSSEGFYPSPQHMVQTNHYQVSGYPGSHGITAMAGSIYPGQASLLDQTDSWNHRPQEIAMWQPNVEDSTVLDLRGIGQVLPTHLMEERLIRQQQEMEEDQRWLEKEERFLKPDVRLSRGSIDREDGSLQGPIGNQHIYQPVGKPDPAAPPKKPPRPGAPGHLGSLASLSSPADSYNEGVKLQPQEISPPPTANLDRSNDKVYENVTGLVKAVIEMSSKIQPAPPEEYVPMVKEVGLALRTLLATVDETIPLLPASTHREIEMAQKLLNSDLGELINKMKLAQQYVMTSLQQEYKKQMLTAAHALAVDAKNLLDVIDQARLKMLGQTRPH

IC50, < 0.02 µM:
COc1cc(C(=O)NC2(C)CCN(C)CC2)ccc1Nc1ncc(Cl)c(Oc2cccc3c2C(=O)N(C)C32CC2)n1 [US20250154134, Compound 118]
COc1cc(C(=O)NC2CCN(C)CC2)ccc1Nc1ncc(C(F)(F)F)c(Oc2cccc3c2C(=O)N(C)C32CC2)n1 [US20250154134, Compound 3]
COc1cc(C(=O)NC2CCNCC2)ccc1Nc1ncc(C(F)(F)F)c(Oc2cccc3c2C(=O)N(C)C32CC2)n1 [US20250154134, Compound 35]
COc1cc(C(=O)NC2CCN(C)CC2)c(F)cc1Nc1ncc(Cl)c(Oc2cccc3c2C(=O)N(C)C32CCCC2)n1 [US20250154134, Compound 209]
